Measurements: US20120237552A1, “Peptoid Agonists of Nerve Growth Factor and Their Use as Medicaments” (priority 2009, published 2012)
“Also recorded” adds a separate entry of the source.

What was measured:
[1] = system: PC12 cells; assay: PC12 cell differentiation (neurite outgrowth); type: cell-based, rat; settings: 3 days, peptoids 2 ng/ml to 50 μg/ml, reduced serum (0.5% FBS and 1% HS); compared with NGF 100 ng/ml
Experimental: PC 12 cell differentiation was measured by plating cells onto collagen-coated 24-wells plates. NGF (100 ng/ml) or the small chemicals at different concentrations were added and the percentage of cells with neurite processes greater than two cell bodies in length were counted after relevant treatment. For each experiment at least 300 cells were randomly measured (Burstein and Greene, 1978).
PC12 cells were maintained at 37° C. in DMEM supplemented with 2.5% FBS, 15% of Horse serum (HS) and penicillin/streptomycin in a humidified 5% CO2 incubator. The cells were grown on 60- and 100-mm tissue culture dishes (Becton Dickinson).
PC 12 cells were cultured for 3 days in the presence of the peptoids (from 2 ng/ml to 50 μg/ml) under reduced serum conditions (0.5% FBS and 1% HS).

[2] = system: C57BL/6 EAE mice; assay: Histological evaluation of brain and spinal cord in EAE mice; type: in vivo; settings: 100 mg/kg
Experimental: Histological evaluation was done on paraformaldehyde-fixed, paraffin-embedded sections of brain and spinal cord. Sections 10 μm thick) were stained with hematoxylin and Luxol Fast Blue to assess inflammation and demyelination. Semiquantitative histological evaluation for inflammation and demyelination was conducted and scored blindly using the following scale: 0=normal; 1=1 to 3/section perivascular cuffs with minimal demyelination; 2=3 to 10 perivascular cuffs/section accompanied by moderate demyelination; 3=wide-spread perivascular cuffing, extensive demyelination with large confluent lesions (Villoslada et al., 2001).
Immunohistochemical procedures were performed on 10 μm paraffin-embedded sections of brain and spinal cord as described previously (Villoslada et al., 2001). Primary antibodies were added at concentrations of 1/1000 for MCA500 (rat anti-mouse CD3 from Serotec) and 1/500 for MCA1107 (rat anti-mouse CD4 from Serotec). Specificity of the immunoreaction was determined by incubating sections without the primary antibodies or using the corresponding isotype controls which yielded no immunoreactivity.

[3] = system: splenocytes isolated from naïve C57BL/6 mice; assay: Splenocyte proliferation assay (MOG stimulated); type: cell-based; settings: MOG 10 μg/ml, splenocytes cultured 2 hours with compound before MOG, p<0.05
Experimental: FIG. 6 depicts effects of N35-4-8C on the peripheral immune response during EAE. […] Splenocytes were cultured for 2 hours with N35-4-8C before MOG addition. Data are means±standard error. *p<0.05 with respect to cells treated with MOG only. FIG. 6B: Gene expression profile of cytokines and inducible nitric oxide synthase (iNOS) assayed by quantitative reverse transcriptase-polymerase chain reaction (RT-PCR) in the spleen of placebo and treated animals at the end of the experiment. Data are expressed as fold change in gene expression levels in the treated groups compared with untreated controls. *p<0.05. IFN=interferon; IL=interleukin; TNF=tumor necrosis factor.
Splenocytes from naïve, non immunized C57BL/6 mice were obtained for in vitro assessment of the effect of N35-4-8C in cell proliferation. Splenocyte proliferation assay was performed as described previously (Martinez-Forero et al., 2008).

[4] = system: C57BL/6 EAE mice; assay: Experimental autoimmune encephalomyelitis (EAE) clinical score; type: in vivo; settings: daily intraperitoneal, day 0 to day 25
Experimental: Trials were approved by the Parc Cientific de Barcelona Committee on Animal Care. Female C57BL/6 mice from Harlan (8-12 weeks old) were immunized subcutaneously in both hind pads with 300 μg of myelin oligodendrocyte glycoprotein (MOG) peptide 35-55 (Spikem, Firenze) emulsified with 50 μg of Mycobacterium tuberculosis (H37Ra strain; Difco, Detroit, Mich.) in incomplete Freund's adjuvant (IFA) as previously described (Adams et al. 2007). Mice were intraperitoneally injected with Pertussis toxin (Sigma)(500 ng) at the time of immunization and 2 days later. Animals were weighted and inspected for clinical signs of disease on a daily basis by a blinded observer. Disease severity of EAE was assessed according to the following scale: 0=normal; 0.5=mild limp tail; 1=limp tail; 2=mild parapesis of the hind limbs, unsteady gait; 3=moderate parapesis, voluntary movements still possible; 4=paraplegia or tetraparesis; 5=moribund state. Data shown for the clinical studies are representative of two independent experiments performed with the indicated number of animals (Moreno et al., 2006).
The agonist molecules selected for the animal studies, N35-4-8C, N6-4-17C and N35-4-17C, were prepared in water with 5% DMSO. Animals were treated with the agonist molecule (25, 50 and 100 mg/kg) or placebo (water+5% DMSO) through daily intraperitoneal injection starting after immunization. At the end of the study, mice were anesthetized and perfused intracardially with 4% of paraformaldehyde in 0.1M phosphate buffer (pH 7.6). Brains, spinal cords and spleens were dissected and either fixed or frozen until use. Serum was obtained from all animals included in the study, and transaminases levels were measured.
In order to evaluate the effects of the NGF-like peptoids “in vivo”, we studied the effect of the NGF-mimetic peptoids in the animal model of MS. C57BL/6 mice immunized with MOG35-55 peptide were treated daily with N35-4-8C, N6-4-17C and N35-4-17C intraperitoneally from day 0 to day 25 at a different concentrations of the compound. N35-4-8C was tested at 3 different concentrations selected in base to previous experiments using agonist molecules in animal models: 25 mg/kg, 50 mg/kg and 100 mg/kg. […] N35-4-17C was also tested at the same concentrations. […] Moreover, the treatment had higher clinical scores with a clear worsening in the progression of the disease (FIG. 4C).

[5] = system: RN22 cells; assay: RN22 cell survival under CuSO4 stress (MTT); type: cell-based, rat; settings: CuSO4 150 μM, 24 h, peptoids 1 ng/ml-10 μg/ml; compared with NGF 100 ng/ml
Experimental: The library was also tested to assess their capacity to promote cell survival of myelin producing cells. To delineate p75 signalling independent of TrkA, we used a rat schwannoma cell line (RN22) expressing p75, but not TrkA, (Gentry et al., 2000).
The rat schawnnoma cell line RN22 was cultured in 5% CO2 at 37° C. in Dulbecco's modified Eagle's medium (DMEM) with 10% fetal bovine serum (FBS) and penicillin/streptomycin.
RN22 cells were plated at 20,000 cells/well on a 24-well plate in DMEM alone and after allowing the cells to adhere for 3 days, cupper sulphate (CuSO4) (150 μM) was added with or without NGF (100 ng/ml) or the peptoids N35-4-8C, N6-4-17C and N35-4-17C at different concentrations (1 ng/ml-10 μg/ml) to generate stress and cell death. After 24 h cell viability was studied by determining the amount of yellow MTT (Sigma) that was reduced to insoluble purple formazan. After removing the medium, the water-insoluble formazan was solubilised with DMSO (Sigma), and the dissolved material was measured spectrophotometrically at a wavelength of 570 nm, subtracting the background at 650 nm (Frade, 2005).

Structure (SMILES): CC(C)CCN(CC(=O)N(CCCN1CCCC1=O)CC(N)=O)C(=O)CNCCc1ccccc1F [N35-4-8C, [N-(2-(2′-Fluorophenyl)ethyl)glycyl]-[N-(3-methylbutyl)glycyl]-N-[3-(2′-oxopyrrolidinyl)propyl]glycinamide]
- differentiation of PC12 cells [1]: induce the differentiation of PC12 cells at different concentrations to an extent substantially comparable with that induce by NGF
- histological scores at the brain and spinal cord level ([2]; day 26, vs placebo, p<0.05): significant lower histological scores
- demyelination areas (Luxol fast blue) ([2]; spinal cord, vs placebo): decreased
- inflammatory infiltrates in the brain and the spinal cord ([2]; vs placebo, p<0.05): less inflammatory infiltrates
- MOG specific proliferative response of splenocytes [3]: significantly lower; also recorded: inhibits the proliferation of splenocytes
- EAE clinical severity ([4]; 25 mg/kg): no effect in disease clinical severity
- EAE clinical severity ([4]; 50 mg/kg): an effect but more moderate
- EAE clinical severity ([4]; 100 mg/kg): almost a complete prevention of EAE; also recorded: prevents EAE
- survival of RN22 cells (cell viability, MTT) [5]: promote survival of RN22 cells
